Read-outs that look alike come from different tables or passages of the source.
How the values were obtained:
erythrocyte AChE [1] = assay: PBK modeling-facilitated QIVIVE and BMD analysis, human
Experimental: For toxicity prediction, the maximum blood FNO concentration was used as a dose metric relating AChE inhibition to acute FNT exposure (see section 3.3). Since the in vitro AChE inhibition under increasing FNO concentrations was tested in rat and human blood, these nominal concentrations could be used directly as the biological effective concentrations (in vivo maximum blood FNO concentrations), and no extra correction for differences in in vitro and in vivo protein binding was deemed necessary. Then the corresponding FNT dose levels resulting in these in vivo concentrations were derived via PBK modeling-facilitated reverse dosimetry. In doing so, the in vitro concentration–response relationship was converted to the predicted in vivo dose-dependent erythrocyte AChE inhibition, which was then compared to available in vivo toxicity data in rats and humans.[8],[39]
BMD modeling was used to derive POD values from the predicted in vivo dose-dependent data sets for rats and humans. A BMD value resulting in a 10% benchmark response (BMR) change with lower 95% confidence limit was defined as BMDL10, and the obtained values for rats and humans were evaluated against the reported NOAELs.[1],[11]−[13] Details and results of BMD analysis are provided in the Supporting Information. […]
BMD modeling was used to derive POD values from the predicted in vivo dose-response curves for rats and humans. The EFSA web-tool (https://efsa.openanalytics.eu/) integrated with the R package PROAST (version 70.0) developed by the Dutch National Institute for Public Health and the Environment (RIVM) was used for the BMD analysis. A BMD value resulting in a 10% benchmark response (BMR) change with lower 95% confidence limit was defined as BMDL10. Briefly, the continuous data were fitted to a set of models (Exponential, Hill, Inverse Exponential, and Log-Normal family models), and all fitted models excluding the FULL and NULL models were used for model averaging via a weighted average model. […]

erythrocyte AChE [2] = assay: Reported NOAELs from in vivo rat toxicity studies
Experimental: Acute exposure to FNT will cause neurotoxic symptoms in mammals due to AChE inhibition and subsequent acetylcholine accumulation at synaptic clefts.[10] Several no-observed-adverse-effect levels (NOAELs) derived from different in vivo rat or human toxicity data sets have been reported by different organizations, even though the same endpoint (erythrocyte AChE inhibition) was chosen. Specifically, NOAELs of 0.25 and 1.3 mg/kg BW for rats have been set by the US Environmental Protection Agency (US EPA)[11] and European Food Safety Authority (EFSA),[1] respectively, and NOAELs of 0.33 and 0.36 mg/kg BW for humans have been derived by Australian Pesticides and Veterinary Medicines Authority (APVMA)[12] and the Joint Food and Agriculture Organization of the United Nations/World Health Organization Meeting on Pesticide Residues (JMPR),[13] respectively. […]
A NOAEL of 1.3 mg/kg BW was reported by EFSA[1] from a 90 day rat study[44] considering the impaired body weight gain and reduction in erythrocyte and brain cholinesterase activity as the critical effects. The US EPA[11] reported a 5.2-fold lower NOAEL (0.25 mg/kg BW) based on the measured erythrocyte AChE inhibition after 2 weeks of FNT dosing in a 92 week rat study.[45] […]

erythrocyte AChE [3] = details: cited from earlier work
[4] = rats, oral exposure; cited from earlier work

With `COP(=S)(OC)Oc1ccc([N+](=O)[O-])c(C)c1` [FNT, O,O-dimethyl O-4-nitro-m-tolyl phosphorothioate] the “predicted POD for humans, fold lower than that of rats” value (erythrocyte AChE [1]; BMDL10 rat vs human) was 5 fold, the “predicted BMDL10 (POD)” value (erythrocyte AChE [1]; human, erythrocyte AChE inhibition, acute oral FNT exposure, 10% BMR, lower 95% confidence limit) was 0.26 mg/kg BW and the BMDU10 (erythrocyte AChE [1]; human, erythrocyte AChE inhibition, acute oral FNT exposure, upper confidence limit) was 0.66 mg/kg BW. For the same molecule, the “US EPA rat NOAEL, fold lower than EFSA rat NOAEL” value (erythrocyte AChE [2]) was 5.2 fold, the “acute reference dose (ARfD)” value (erythrocyte AChE [3]; JMPR) was 0.04 mg/kg BW/day and the “acute reference dose (ARfD)” value (erythrocyte AChE [3]; US EPA) was 0.0025 mg/kg BW/day. The “fraction of the dose absorbed (Fa)” value [4] was 0.9.

— paper PMC10720383, “Acetylcholinesterase Inhibition in Rats and Humans Following Acute Fenitrothion Exposure Predicted by Physiologically Based Kinetic Modeling-Facilitated Quantitative In Vitro to In Vivo Extrapolation” (Environmental Science & Technology, 2023)
